Structures are written as SMILES. pIC50: −log10 of the molar value.

For the assay, the system named is peripheral blood mononuclear cells (PBMC) stimulated with allogeneic PBMC or EBV-transformed human B cells (RPMI1788). The experiment in a line: Mixed lymphocyte reaction (MLR) assay. It counts as cell-based. The following applies: Homo sapiens, RPMI-1788; MLR assay of example 319; read-out: MLR IC50. The procedure, abridged:
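Responder PBMC co-cultured in triplicate with 30 Gy-irradiated allogeneic PBMC or RPMI1788 B cells plus compound (DMSO stock 10 mM, diluted in medium). After 5 days at 37° C, 1 μCi [3H]-thymidine added for 16 h more; incorporated cpm counted and proliferation inhibition calculated.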
The term pIC50 denotes the negative decadic logarithm of the IC50, by convention in mol/L. For the molecule `Nc1nc(N2CCN(C(=O)NC34CC5CC(CC(C5)C3)C4)CC2)c2nc(-c3ccc(F)cc3)ccc2n1` [Example 453, 2-amino-4-{4-[N-(1-adamantylcarbamoyl)]-piperazin-1-yl}-6-(4-fluorophenyl)-pyrido[3,2-d]pyrimidine], the pIC50 was 5.40.
Turning to `Nc1nc(N2CCN(C(=O)NC3CCCC3)CC2)c2nc(-c3ccc(F)cc3)ccc2n1` [Example 454, 2-amino-4-[4-(N-cyclopentylcarbamoyl)-piperazin-1-yl]-6-(4-fluorophenyl)-pyrido[3,2-d]pyrimidine], the pIC50 was 6.40.
As to `Nc1nc(N2CCN(C(=O)Nc3ccc(Cl)cc3)CC2)c2nc(-c3ccc(F)cc3)ccc2n1` [Example 455, 2-amino-4-[4-[N-(4-chlorophenyl)carbamoyl]-piperazin-1-yl]-6-(4-fluorophenyl)-pyrido[3,2-d]pyrimidine], the negative-log IC50 (pIC50) is 7.15.
Regarding `CC(C)(C)OC(=O)N1CCCC(Nc2nc(N)nc3ccc(-c4ccc(F)cc4)nc23)C1` (centres unmarked) [Example 457, 2-amino-4-[1-(tert-butoxycarbonyl)piperid-3-ylamino]-6-(4-fluorophenyl)-pyrido[3,2-d]pyrimidine], the pIC50 was 5.18.
Then `Nc1nc(N2CCN(C(=O)OCc3ccccc3)CC2)c2nc(-c3ccc(F)cc3)ccc2n1` [Example 458, 2-amino-4-[4-(benzyloxycarbonyl)-piperazin-1-yl]-6-(4-fluorophenyl)-pyrido[3,2-d]pyrimidine], with 6.15.
Regarding `Nc1nc(N2CCN(CC(=O)NCCc3ccccc3)CC2)c2nc(-c3ccc(F)cc3)ccc2n1` [Example 459, 2-amino-4-[4-[2-(phenyl)ethylcarbamylmethyl]-piperazin-1-yl]-6-(4-fluorophenyl)-pyrido[3,2-f]pyrimidine], the pIC50 was 6.30.
Then `CC(C)(C)OC(=O)N1CCC(Nc2nc(N)nc3ccc(-c4ccc(F)cc4)nc23)CC1` [Example 461, 2-amino-4-[1-(tert-butoxycarbonyl)piperid-4-ylamino]-6-(4-fluorophenyl)-pyrido[3,2-d]pyrimidine], with 5.40.
Turning to `COCC(=O)N1CCN(c2nc(N)nc3ccc(-c4ccc(F)cc4)nc23)CC1` [Example 462, 2-amino-4-[4-(methoxyacetyl)piperazin-1-yl]-6-(4-fluorophenyl)-pyrido[3,2-d]pyrimidine], the pIC50 is 6.40.
Then `CCN(CC)C(=O)N1CCN(c2nc(N)nc3ccc(-c4ccc(F)cc4)nc23)CC1` [Example 463, 2-amino-4-[4-(diethylcarbamoyl)piperazin-1-yl]-6-(4-fluorophenyl)-pyrido[3,2-d]pyrimidine], with 6.22.
In the case of `CN(C)C(=O)N1CCN(c2nc(N)nc3ccc(-c4ccc(F)cc4)nc23)CC1` [Example 464, 2-amino-4-[4-(dimethylcarbamoyl)piperazin-1-yl]-6-(4-fluorophenyl)-pyrido[3,2-d]pyrimidine] it was 6.10; in that of `CC(C)N(C(=O)N1CCN(c2nc(N)nc3ccc(-c4ccc(F)cc4)nc23)CC1)C(C)C` [Example 465, 2-amino-4-[4-(diisopropylcarbamoyl)piperazin-1-yl]-6-(4-fluorophenyl)-pyrido[3,2-d]pyrimidine], 5.52.
In the case of `Nc1nc(N2CCN(C(=O)N3CCOCC3)CC2)c2nc(-c3ccc(F)cc3)ccc2n1` [Example 466, 2-amino-4-[4-(morpholinocarbonyl)piperazin-1-yl]-6-(4-fluorophenyl)-pyrido[3,2-d]pyrimidine] it was 5.60.
Take `CC(C)C(C(=O)N1CCN(c2nc(N)nc3ccc(-c4ccc(F)cc4)nc23)CC1)c1ccc(Cl)cc1` (centres unmarked) [Example 467, 2-amino-4-{4-[2-(4-chlorophenyl)-3-methylbutyryl]-piperazin-1-yl}-6-(4-fluorophenyl)-pyrido[3,2-d]pyrimidine]: the pIC50 was 5.33.
Then `CC(Cl)C(=O)N1CCN(c2nc(N)nc3ccc(-c4ccc(F)cc4)nc23)CC1` (centres unmarked) [Example 468, 2-amino-4-[4-(2-chloropropionyl)piperazin-1-yl]-6-(4-fluorophenyl)-pyrido[3,2-d]pyrimidine], with 5.49.

The record behind these values is patent US20090264415A2 (priority 2004, published 2009).
